Laboratory results from patent US20170121344A1 (Siga Technologies, Inc., priority 2009, published 2017).
Like-named read-outs stand apart in the source and are kept apart here.

Tests used:
DENV-4 = experiment: Viral yield assay against DENV-4 in Vero cells; format: cell-based; details: Dengue virus
Method: (§1) Compounds that were active in the primary screen were tested for activity in viral yield assays. […] Vero cells in 12-well plates were infected with dengue-2 virus at a multiplicity of infection (MOI) of 0.1, treated with compound (or DMSO as a control), incubated at 37° C., harvested 48 hours post infection and titered on Vero cells as described above. The EC50 was calculated through ExcelFit. Activities against other serotypes of dengue virus were determined in a similar way.

DENV-1 = experiment: Viral yield assay against DENV-1 in Vero cells; format: cell-based; details: Dengue virus
Method: as §1

[1] = system: Dengue-2 (Strain New Guinea C); experiment: Viral yield assay against Dengue-2 in Vero cells; format: cell-based, Dengue virus; details: Dengue virus, read-out: Activity (EC50 in μM) DENV-2
Method in brief: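 Infect Vero cells with virus (MOI 0.1), add compound or DMSO, incubate at 37° C, collect progeny at 48 hours post infection, then titrate on Vero cells to obtain EC50.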

DENV-3 = experiment: Viral yield assay against DENV-3 in Vero cells; format: cell-based; details: Dengue virus
Method: as §1

[2] = DENV2, viral yield assay, Vero cells, MOI 0.1, 48 hours post infection

Structure (SMILES): CN1CCc2nc3sc(C(=O)Nc4nnc(-c5ccccc5)s4)c(N)c3cc2C1 [Compound 301, 3-amino-6-methyl-N-(5-phenyl-1,3,4-thiadiazol-2-yl)-7,8-dihydro-5H-thieno[2,3-b][1,6]naphthyridine-2-carboxamide]
- EC50 (DENV-4; DENV4, viral yield assay): < 5 µM
- EC50 (DENV-1; DENV1, viral yield assay): < 5 µM
- EC50 [1, 2]: < 5 µM
- EC50 (DENV-3; DENV3, viral yield assay): 5 to 25 µM

Structure (SMILES): Nc1c(C(=O)Nc2ccc3ccccc3c2)sc2nc3c(cc12)CCCCC3 [Compound 365, 3-amino-N-(naphthalen-2-yl)-6,7,8,9-tetrahydro-5H-cyclohexpta[b]thieno[3,2-e] pyridine-2-carboxamide]
- EC50 (DENV-4; DENV4, viral yield assay): > 25 µM
- EC50 (DENV-1; DENV1, viral yield assay): 5 to 25 µM
- EC50 [1, 2]: < 5 µM
- EC50 (DENV-3; DENV3, viral yield assay): 5 to 25 µM

Structure (SMILES): Nc1c(C(=O)Nc2ccc(OC(F)(F)F)cc2)sc2nc(-c3ccncc3)ccc12 [Compound 417, 3-amino-6-(4-pyridyl)-N-[4-(trifluoromethoxy)phenyl]thieno[2,3-b] pyridine-2-carboxamide]
- EC50 (DENV-4; DENV4, viral yield assay): < 5 µM
- EC50 (DENV-1; DENV1, viral yield assay): < 5 µM
- EC50 [1, 2]: < 5 µM
- EC50 (DENV-3; DENV3, viral yield assay): < 5 µM

Structure (SMILES): Cc1cccc2cc3c(N)c(C(=O)Nc4cccc(C(F)(F)F)c4)sc3nc12 [Compound 364, 3-amino-8-methyl-N-(3-(trifluoromethyl)phenyl)thieno [2,3-b]quinoline-2-carboxamide]
- EC50 (DENV-4; DENV4, viral yield assay): < 5 µM
- EC50 (DENV-1; DENV1, viral yield assay): < 5 µM
- EC50 [1, 2]: < 5 µM
- EC50 (DENV-3; DENV3, viral yield assay): < 5 µM

Structure (SMILES): Nc1c(C(=O)Nc2ccc(C(F)(F)F)cc2)sc2nc(-c3ccc4c(c3)OCO4)ccc12 [Compound 452, 3-amino-6-(1,3-benzodioxol-5-yl)-N-[4-(trifluoromethyl)phenyl]thieno[2,3-b] pyridine-2-carboxamide]
- EC50 (DENV-4; DENV4, viral yield assay): < 5 µM
- EC50 (DENV-1; DENV1, viral yield assay): < 5 µM
- EC50 [1, 2]: < 5 µM
- EC50 (DENV-3; DENV3, viral yield assay): < 5 µM

Structure (SMILES): COc1ccc(OC)c(NC(=O)c2sc3nc(-c4cccs4)ccc3c2N)c1 [Compound 441, 3-amino-N-(2,5-dimethoxyphenyl)-6-(2-thienyl)thieno[2,3-b]pyridine-2-carboxamide]
- EC50 (DENV-4; DENV4, viral yield assay): < 5 µM
- EC50 (DENV-1; DENV1, viral yield assay): < 5 µM
- EC50 ([1]; DENV2, Vero, 48 h): < 5 µM
- EC50 (DENV-3; DENV3, viral yield assay): < 5 µM

Structure (SMILES): Cc1ccc(NC(=O)c2sc3nc(-c4ccc5c(c4)OCO5)ccc3c2N)c(Br)c1 [Compound 514, 3-amino-6-(1,3-benzodioxol-5-yl)-N-(2-bromo-4-methyl-phenyl)thieno[2,3-b] pyridine-2-carboxamide]
- EC50 (DENV-4; DENV4, viral yield assay): < 5 µM
- EC50 (DENV-1; DENV1, viral yield assay): < 5 µM
- EC50 [1, 2]: < 5 µM
- EC50 (DENV-3; DENV3, viral yield assay): < 5 µM

Structure (SMILES): CCOc1ccc(NC(=O)c2sc3nc(-c4ccc(OC)c(OC)c4)ccc3c2N)cc1 [Compound 635, 3-amino-6-(3,4-dimethoxyphenyl)-N-(4-ethoxyphenyl)thieno[2,3-b]pyridine-2-carboxamide]
- EC50 (DENV-4; DENV4, viral yield assay): < 5 µM
- EC50 (DENV-1; DENV1, viral yield assay): < 5 µM
- EC50 [1, 2]: < 5 µM
- EC50 (DENV-3; DENV3, viral yield assay): > 25 µM

Structure (SMILES): Nc1c(C(=O)Nc2ccc(Br)cc2F)sc2nc(-c3ccc(F)cc3)ccc12 [Compound 616, 3-amino-N-(4-bromo-2-fluoro-phenyl)-6-(4-fluorophenyl)thieno[2,3-b]pyridine-2-carboxamide]
- EC50 (DENV-4; DENV4, viral yield assay): < 5 µM
- EC50 (DENV-1; DENV1, viral yield assay): < 5 µM
- EC50 [1, 2]: < 5 µM
- EC50 (DENV-3; DENV3, viral yield assay): < 5 µM

Structure (SMILES): COc1ccc(-c2ccc3c(N)c(C(=O)Nc4cccc(Br)c4)sc3n2)cc1 [Compound 454, 3-amino-N-(3-bromophenyl)-6-(4-methoxyphenyl)thieno[2,3-b]pyridine-2-carboxamide]
- EC50 (DENV-4; DENV4, viral yield assay): < 5 µM
- EC50 (DENV-1; DENV1, viral yield assay): < 5 µM
- EC50 [1, 2]: < 5 µM
- EC50 (DENV-3; DENV3, viral yield assay): < 5 µM

Structure (SMILES): Nc1c(C(=O)Nc2ccc(OC(F)F)cc2)sc2nc(-c3cccc(OC(F)F)c3)ccc12 [Compound 345, 3-amino-6-[3-(difluoromethoxy)phenyl]-N-[4-(difluoromethoxy)phenyl]thieno[2,3-b]pyridine-2-carboxamide]
- EC50 (DENV-4; DENV4, viral yield assay): < 5 µM
- EC50 (DENV-1; DENV1, viral yield assay): < 5 µM
- EC50 [1, 2]: < 5 µM
- EC50 (DENV-3; DENV3, viral yield assay): < 5 µM

Structure (SMILES): COc1ccc(NC(=O)c2sc3nc(-c4ccc5c(c4)OCO5)ccc3c2N)c(OC)c1 [Compound 651, 3-amino-6-(1,3-benzodioxol-5-yl)-N-(2,4-dimethoxyphenyl)thieno[2,3-b]pyridine-2-carboxamide]
- EC50 (DENV-4; DENV4, viral yield assay): < 5 µM
- EC50 (DENV-1; DENV1, viral yield assay): < 5 µM
- EC50 [1, 2]: < 5 µM
- EC50 (DENV-3; DENV3, viral yield assay): < 5 µM

Structure (SMILES): O=C(Nc1c(C(=O)Nc2nnc(-c3ccccc3)s2)sc2nc3c(cc12)CCCCC3)c1ccncc1 [Compound 298, 3-(isonicotinamido)-N-(5-phenyl-1,3,4-thiadiazol-2-yl)-6,7,8,9-tetrahydro-5H-cyclohepta[b]thieno[3,2-e]pyridine-2-carboxamide]
- EC50 (DENV-4; DENV4): < 5 µM
- EC50 (DENV-1; DENV1): < 5 µM
- EC50 ([1]; DENV2, Vero cells): < 5 µM
- EC50 (DENV-3; DENV3): < 5 µM

Structure (SMILES): COc1ccc(-c2ccc3c(N)c(C(=O)Nc4cc(Cl)ccc4Cl)sc3n2)cc1OC [Compound 575, 3-amino-N-(2,5-dichlorophenyl)-6-(3,4-dimethoxyphenyl)thieno[2,3-b]pyridine-2-carboxamide]
- EC50 (DENV-4; DENV4, viral yield assay): < 5 µM
- EC50 (DENV-1; DENV1, viral yield assay): < 5 µM
- EC50 [1, 2]: < 5 µM
- EC50 (DENV-3; DENV3, viral yield assay): < 5 µM

Structure (SMILES): C=CCSc1ccc(NC(=O)c2sc3nc(-c4cccc(OC)c4)ccc3c2N)cc1 [Compound 542, N-(4-allylsulfanylphenyl)-3-amino-6-(3-methoxyphenyl)thieno[2,3-b]pyridine-2-carboxamide]
- EC50 (DENV-4; DENV4, viral yield assay): < 5 µM
- EC50 (DENV-1; DENV1, viral yield assay): < 5 µM
- EC50 [1, 2]: < 5 µM
- EC50 (DENV-3; DENV3, viral yield assay): < 5 µM

Structure (SMILES): Cc1ccnc2sc(C(=O)Nc3nnc(-c4ccccc4)s3)c(N)c12 [Compound 288, 3-amino-4-methyl-N-(5-phenyl-1,3,4-thiadiazol-2-yl)thieno[2,3-b]pyridine-2-carboxamide]
- EC50 (DENV-4; DENV4, viral yield assay): < 5 µM
- EC50 (DENV-1; DENV1, viral yield assay): < 5 µM
- EC50 [1, 2]: < 5 µM
- EC50 (DENV-3; DENV3, viral yield assay): 5 to 25 µM

Structure (SMILES): COc1ccc(-c2ccc3c(N)c(C(=O)Nc4ccc(C)c(C)c4)sc3n2)cc1OC [Compound 577, 3-amino-6-(3,4-dimethoxyphenyl)-N-(3,4-dimethylphenyl)thieno[2,3-b] pyridine-2-carboxamide]
- EC50 (DENV-4; DENV4, viral yield assay): < 5 µM
- EC50 (DENV-1; DENV1, viral yield assay): < 5 µM
- EC50 [1, 2]: < 5 µM
- EC50 (DENV-3; DENV3, viral yield assay): < 5 µM

Structure (SMILES): Nc1c(C(=O)Nc2cc(Cl)cc(Cl)c2)sc2nc(-c3cccs3)ccc12 [Compound 431, 3-amino-N-(3,5-dichloropehnyl)-6-(2-thienyl)thieno[2,3-b]pyridine-2-carboxamide]
- EC50 (DENV-4; DENV4, viral yield assay): < 5 µM
- EC50 (DENV-1; DENV1, viral yield assay): < 5 µM
- EC50 [1, 2]: < 5 µM
- EC50 (DENV-3; DENV3, viral yield assay): < 5 µM

Structure (SMILES): COc1ccc(C(F)(F)F)cc1NC(=O)c1sc2nc(-c3ccc4c(c3)OCO4)ccc2c1N [Compound 599, 3-amino-6-(1,3-benzodioxol-5-yl)-N-[2-methoxy-5-(trifluoromethyl)phenyl]thieno [2,3-b]pyridine-2-carboxamide]
- EC50 (DENV-4; DENV4, viral yield assay): < 5 µM
- EC50 (DENV-1; DENV1, viral yield assay): < 5 µM
- EC50 [1, 2]: < 5 µM
- EC50 (DENV-3; DENV3, viral yield assay): < 5 µM

Structure (SMILES): Nc1c(C(=O)Nc2cccc(F)c2)sc2nc(-c3ccc(F)cc3)ccc12 [Compound 489, 3-amino-N-(3-fluroophenyl)-6-(4-fluroophenyl)thieno[2,3-b]pyridine-2-carboxamide]
- EC50 (DENV-4; DENV4, viral yield assay): < 5 µM
- EC50 (DENV-1; DENV1, viral yield assay): < 5 µM
- EC50 [1, 2]: < 5 µM
- EC50 (DENV-3; DENV3, viral yield assay): < 5 µM

Structure (SMILES): Nc1c(C(=O)Nc2ccc(Br)cc2)sc2nc(-c3ccc(Cl)cc3)ccc12 [Compound 425]
- EC50 (DENV-4; DENV4, viral yield assay): < 5 µM
- EC50 (DENV-1; DENV1, viral yield assay): < 5 µM
- EC50 [1, 2]: < 5 µM
- EC50 (DENV-3; DENV3, viral yield assay): < 5 µM

Structure (SMILES): COc1cccc(-c2ccc3c(N)c(C(=O)Nc4ccc(Br)c(C)c4)sc3n2)c1 [Compound 550, 3-amino-N-(4-bromo-3-methyl-phenyl)-6-(3-methoxyphenyl)thieno[2,3-b] pyridine-2-carboxamide]
- EC50 (DENV-4; DENV4, viral yield assay): < 5 µM
- EC50 (DENV-1; DENV1, viral yield assay): < 5 µM
- EC50 [1, 2]: < 5 µM
- EC50 (DENV-3; DENV3, viral yield assay): < 5 µM

Structure (SMILES): Nc1c(C(=O)Nc2ccccc2Br)sc2nc(-c3ccc(Cl)cc3)ccc12 [Compound 341, 3-amino-N-(2-bromophenyl)-6-(4-chlorophenyl) thieno[2,3-b] pyridine-2-carboxamide]
- EC50 (DENV-4; DENV4, viral yield assay): < 5 µM
- EC50 (DENV-1; DENV1, viral yield assay): < 5 µM
- EC50 [1, 2]: < 5 µM
- EC50 (DENV-3; DENV3, viral yield assay): < 5 µM

Structure (SMILES): CC(=O)Nc1c(C(=O)Nc2nnc(-c3ccccc3)s2)sc2nc3c(cc12)CCCCC3 [Compound 358, 3-acetamido-N-(5-phenyl-1,3,4-thiadiazol-2-yl)-6,7,8,9-tetrahydro-5H-cyclohepta[b]thieno[3,2-e]pyridine-2-carboxamide]
- EC50 (DENV-4; DENV4): > 25 µM
- EC50 (DENV-1; DENV1): < 5 µM
- EC50 ([1]; DENV2, Vero cells): < 5 µM
- EC50 (DENV-3; DENV3): 5 to 25 µM

Structure (SMILES): Nc1c(C(=O)Nc2cc(Cl)ccc2Cl)sc2nc(-c3cccs3)ccc12 [Compound 433, 3-amino-N-(2,5-dichlorophenyl)-6-(2-thienyl)thieno[2,3-b]pyridine-2-carboxamide]
- EC50 (DENV-4; DENV4, viral yield assay): < 5 µM
- EC50 (DENV-1; DENV1, viral yield assay): < 5 µM
- EC50 [1, 2]: < 5 µM
- EC50 (DENV-3; DENV3, viral yield assay): < 5 µM

Structure (SMILES): COc1cccc(-c2ccc3c(N)c(C(=O)Nc4cccc(Br)c4)sc3n2)c1 [Compound 447, 3-amino-N-(3-bromophenyl)-6-(3-methoxyphenyl)thieno[2,3-b]pyridine-2-carboxamide]
- EC50 (DENV-4; DENV4, viral yield assay): < 5 µM
- EC50 (DENV-1; DENV1, viral yield assay): < 5 µM
- EC50 [1, 2]: < 5 µM
- EC50 (DENV-3; DENV3, viral yield assay): < 5 µM

Structure (SMILES): COc1ccc(-c2ccc3c(N)c(C(=O)Nc4ccc(C)c(F)c4)sc3n2)cc1OC [Compound 533, 3-amino-6-(3,4-dimethoxyphenyl)-N-(3-fluoro-4-methyl-phenyl)thieno[2,3-b] pyridine-2-carboxamide]
- EC50 (DENV-4; DENV4, viral yield assay): < 5 µM
- EC50 (DENV-1; DENV1, viral yield assay): < 5 µM
- EC50 [1, 2]: < 5 µM
- EC50 (DENV-3; DENV3, viral yield assay): < 5 µM
